Source: US4950675A, “Pyridine di-mevalono-lactones as inhibitors of cholesterol biosynthesis” (Warner-Lambert Company, priority 1988, dated 1990)
Where a name gives a salt, the structure may show the parent alone.

What was measured:
cholesterol synthesis = test: AICS screen: plasma [14C]cholesterol after oral dosing of cholestyramine-fed rats (inhibition of cholesterol synthesis); type: in vivo; settings: male Sprague-Dawley rats fed 5% cholestyramine; for inhibition at 1 mg/kg: Rattus norvegicus
Experimental: The ability of compound s of the present invention to inhibit the biosynthesis of cholesterol was also measured by a method (designated AICS screen) which utilizes the procedure described by A. W. Alberts et al, Proc. Natl. Acad. Sci., (1980), 77, pp 3957-3961.
In this method male Sprague-Dawley rats (200 g body weight) previously fed 5% cholestyramine for three days were randomly divided into groups (N=5/group) and given a single dose of vehicle (controls) or compound by an oral gavage at the indicated doses. One hour after drug dosing, all rats were injected intraperitoneally with sodium[1-^14 C]-acetate (18.75 μCi/rat in 0.2 ml saline). After 50 minutes, blood samples were taken, plasma obtained by centrifugation, and plasma [^14 C] cholesterol measured after saponification and extraction.

[1] = molecular target: sterol synthesis by rat liver homogenate (HMG-CoA reductase); test: CSX screen ("CSI" in Table 2): inhibition of sterol synthesis from 14C-acetate in rat liver homogenate; type: biochemical; settings: 50% inhibition of sterol synthesis over a one-hour period
Experimental: The ability of compound s of the present invention to inhibit the biosynthesis of cholesterol was measured by a method (designated CSX screen) which utilizes the procedure described by R. E. Dugan, et al, Archiv. Biochem. Biophys., (1972), 152, 21-27. In this method, the level of HMG-CoA enzyme activity in standard laboratory rats is increased by feeding the rats a chow diet containing 5% cholestyramine for four days, after which the rats are sacrificed.
The rat livers are homogenized, and the incorporation of […] into nonsaponifiable lipid by the rat liver homogenate is measured. The micromolar concentration of compound required for 50% inhibition of sterol synthesis over a one-hour period is measured, and expressed as an IC50 value.

| SMILES | inhibition at 1 mg/kg (cholesterol synthesis; Table 1, single oral gavage) | inhibition at 1 mg/kg (cholesterol synthesis; Table 2, single oral gavage) | IC50 [1] | AICS % Inhibition of Cholesterol Synthesis (cholesterol synthesis; Table 2, 1.0 mg/kg, single oral gavage) |
| --- | --- | --- | --- | --- |
| CCc1nc(CC)c(/C=C/C2CC(O)CC(=O)O2)c(-c2ccc(F)cc2)c1/C=C/C1CC(O)CC(=O)O1 (stereo not drawn) [6,6'-[2,6-diethyl-4-(4-fluorophenyl)-3,5-pyridinediyl]di[2,1-ethenediyl]bis[4α,6β(E)][tetrahydro-4-hydroxy-2H -pyran-2-one]] | -3% |  |  |  |
| CC(C)c1nc(C(C)C)c(/C=C/C2CC(O)CC(=O)O2)c(-c2ccc(F)cc2)c1/C=C/C1CC(O)CC(=O)O1 (stereo not drawn) [6,6'-[[2,6-bis(1-methylethyl)-4-(4-fluorophenyl)-3,5-pyridinediyl]di-1,2-ethenediyl]bis [4α,6B(E)] tetrahydro-4-hydroxy-2H-pyran-2-one]] | -65% |  |  |  |
| CCc1nc(CC)c(/C=C/C(O)CC(O)CC(=O)O)c(-c2ccc(F)cc2)c1/C=C/C(O)CC(O)CC(=O)O (stereo not drawn) [[R*,S*(E)]7,7'-[2,6-diethyl-4-(4-fluorophenyl)-3,5-pyridinediyl]bis[3,5-dihydroxy-6-heptenoic acid, disodium salt]] |  | -16% | 32 nM |  |
| CC(C)c1nc(C(C)C)c(C=CC(O)CC(O)CC(=O)[O-])c(-c2ccc(F)cc2)c1C=CC(O)CC(O)CC(=O)[O-].[Na+].[Na+] (stereo not drawn) [[R*,S*(E)]-7,7'-[2,6-bis(1-methylethyl)-2,4-(4-fluorophenyl)-3,5-pyridinediyl]bis [3,5-dihydroxy-6-heptenoio acid, disodium salt]] |  |  | 5.6 nM | -21% |
